Test results from patent US20200171162A1, “E-POLY-L-LYSINE DERIVATIVES HAVING FUNCTIONAL GROUP FOR CLICK CHEMISTRY, METHOD FOR PRODUCING THE SAME, AND USE THEREOF” (Fukui Prefectural University, priority 2017, published 2020).

What was measured:
physchem = experiment: physchem
Description: A commercial DBCO-PEG4-5/6-FAM represented by formula (12) (0.5 μmol) and a 9- to 18-mer ε-PL-PEG-azide represented by the general formula (10) (wherein n is an integer of 9 to 18) (1.0 μmol) were dissolved in 80% dimethylsulfoxide (hereinafter referred to as DMSO). The mixture was subjected to a click chemistry reaction while stirred at 30° C. for 24 hours. The reaction mixture was analyzed by ESI-TOF-MS/HPLC as described in Example 1.

HeLa cells = experiment: Biomembrane permeability test using HeLa cells (fluorescence intensity of cell extract); format: cell-based; details: statement for the unmodified dye
Description: The culture of HeLa cells was performed in a Dulbecco's modified Eagle's medium (DMEM) containing 10% fetal bovine serum (FBS) in an atmosphere of 5% carbon dioxide at 37° C. Under such culture conditions, the cells were cultured in 12-well plates until grown to 70 to 80% confluency. The cells were washed twice with DMEM without FBS (DMEM w/o FBS). […] Incubation was performed at 4° C. for 30 minutes. The cells were washed successively with phosphate buffered saline (PBS) twice, with PBS alone or PBS containing heparin (100 μg/mL), and with PBS twice. To the cells, 300 μL of 100 mM Tris-HCl buffer solution (pH 8.0) containing 1% Triton X-100 was added for extraction of the compound taken up by the cells. After removing the insoluble fraction by centrifugation, fluorescence intensity was measured.
The culture of HeLa cells was performed in a Dulbecco's modified Eagle's medium (DMEM) containing 10% fetal bovine serum (FBS) in an atmosphere of 5% carbon dioxide at 370° C. Under such culture conditions, the cells were cultured in 12-well plates until grown to 70 to 80% confluency. The cells were washed twice with DMEM without FBS (DMEM w/o FBS). […] Incubation was performed at 4° C. for 30 minutes. […] After removing the insoluble fraction by centrifugation, fluorescence intensity was measured.

[1] = system: Dox-resistant K562 cells (K562/ADR); experiment: Cytotoxicity (anticancer activity), MTT assay; format: cell-based; details: Homo sapiens, 48 hours
Description: (§1) The culture of K562 cells and K562/ADR cells was performed in an RPMI1640 medium containing 10% fetal bovine serum (FBS) in an atmosphere of 5% carbon dioxide at 37° C. The cells were suspended at 1×10^5 cells/mL in the medium, and 100 μL (1×10^4 cells) of the cell suspension was seeded on each well of 96-well plates and cultured for 24 hours. […] MTT assay was performed to determine cytotoxicity based on viable cell count.

[2] = system: human chronic myelogenous leukemia K562 cells; experiment: Cytotoxicity (anticancer activity), MTT assay; format: cell-based; details: 48 hours
Description: as §1

SMILES: O=C(CCOCCOCCOCCOCCNC(=O)c1ccc(-c2c3ccc(=O)cc-3oc3cc(O)ccc23)c(C(=O)O)c1)NCCC(=O)N1Cc2ccccc2C#Cc2ccccc21 [DBCO-PEG4-5/6-FAM]
- water solubility (physchem): poorly water-soluble
- biomembrane permeability (HeLa cells): no biomembrane permeability

SMILES: COc1cccc2c1C(=O)c1c(O)c3c(c(O)c1C2=O)C[C@@](O)(C(=O)CO)C[C@@H]3O[C@H]1C[C@H](N)[C@H](O)[C@H](C)O1 [Dox, doxorubicin]
- IC50 [1]: 1040 nM
- IC50 [2]: 239 ± 72 nM

SMILES: C[C@@H]1[C@H](O)[C@@H](C)/C=C/C=C/C=C/C=C/C=C/C=C/C=C/[C@H](O[C@@H]2O[C@H](C)[C@@H](O)[C@H](N)[C@@H]2O)C[C@@H]2O[C@](O)(C[C@@H](O)C[C@@H](O)[C@H](O)CC[C@@H](O)C[C@@H](O)CC(=O)O[C@H]1C)C[C@H](O)[C@H]2C(=O)O [AmpB, amphotericin B]
- solubility (physchem; water): < 1080 µM
